Laboratory results: patent US20190119193A1, “COMPOSITION FOR REGULATING PLANT GROWTH, METHOD FOR TREATING PLANTS THEREWITH, AND ACTIVE INGREDIENT THEREOF” (Ivan Aleksandrovich Starikov, priority 2016, published 2019)

What was measured:
Type in all cases: in vivo
Details in all cases: for Germinative energy: day 3; for Germinative capacity / Number of lateral roots / Sprout height / Taproot length: day 7
[1] = system: sunflower seeds (“Voronezh 638” variety); assay: Laboratory tests of DMOA and DEOA for sunflower seeds
Method: (§1) After that DMOA and DEOA were dissolved in dimethyl sulfoxide to give solutions of 10 g/L concentration, then water was added to give aqueous solutions of DMOA with concentrations of 5.5·10^−5 M, 5.5·10^−6 M, 5.5·10^−7 M, 5.5·10^−8 M, 5.5·10^−9 M and DEOA with concentrations of 4.8·10^−5 M, 4.8·10^−6 M, 4.8·10^−7 M, 4.8·10^−8 M, 4.8·10^−9 M.
(§2) The obtained aqueous solutions of DMOA and DEOA were tested in the Scientific Center of Soil-Ecological Reasearch of the Federal State-Funded Educational Institution of Higher Education “Russian State Agrarian University—Moscow Agricultural Academy named after K. A. Timiryazev” (Moscow, 2015) according to the method described by T. A. Sergeeva (Method of laboratory testing of herbicides, Plant protection, 1963, No. 2, pp. 42-43). The primary laboratory screening of DMOA and DEOA was carried out on the seeds of five different crops: sunflower of “Voronezh 638” variety, soybean of “Vilana” variety, alfalfa of “Vega” variety, cucumber of “Nezhinsky” variety and tomato of “Volgogradets” variety.
(§3) Water was used as a reference.
(§4) A single experiment was carried out in a Petri dish. A circle of filter paper was laid at the bottom of the dish and treated with 5 ml of the work solution selected for the experiment. After that 25 seeds were uniformly laid on the surface of the treated filter paper. The Petri dish was kept at a temperature of 21-23° C. with illumination by fluorescent lamps for 7 days. The fourfold replication of the experiment within a single variant was applied.
(§5) The experiment identified the number and percentage of normally germinated seeds on day 3 (germinative energy) and on day 7 (germinative capacity) after the beginning of the experiment. On day 7 the main biometric parameters were also measured: sprout height (mm), taproot length (mm) and number of lateral roots (pcs).
(§6) The results were processed with the method of variance analysis with the help of STRAZ software in order to get the LSD0.05 (least significant difference between the test results on 5% significance level).

[2] = system: tomato seeds (“Volgogradets” variety); assay: Laboratory tests of DMOA and DEOA for tomato seeds
Method: as §1, §2, §3, §4, §5, §6

[3] = system: alfalfa seeds (“Vega” variety); assay: Laboratory tests of DMOA and DEOA for alfalfa seeds
Method: as §1, §2, §3, §4, §5, §6

[4] = system: cucumber seeds (“Nezhinsky” variety); assay: Laboratory tests of DMOA and DEOA for cucumber seeds
Method: as §1, §2, §3, §4, §5, §6

## CCOC(=O)C=C([O-])C(=O)OCC.[Na+] [DEOA, sodium salt of diethyl ester of oxaloacetic acid]
[1]; 4.8 · 10^−5 M
  Germinative energy: 87%
  Germinative capacity: 93%
  Number of lateral roots: 9.6 pcs.
  Sprout height: 40.1 ↑↑↑↑↑ mm
  Taproot length: 38.4 mm
[1]; 4.8 · 10^−6 M
  Germinative energy: 80%
  Germinative capacity: 90%
  Number of lateral roots: 8.9 pcs.
  Sprout height: 29.7 ↑↑ mm
  Taproot length: 44.0 mm
[1]; 4.8 · 10^−7 M
  Germinative energy: 93 ↑ %
  Germinative capacity: 93%
  Number of lateral roots: 6.9 pcs.
  Sprout height: 29.2 ↑↑ mm
  Taproot length: 37.0 mm
[1]; 4.8 · 10^−8 M
  Germinative energy: 97 ↑ %
  Germinative capacity: 99 ↑ %
  Number of lateral roots: 11.2 ↑ pcs.
  Sprout height: 27.7 ↑ mm
  Taproot length: 56.3 ↑↑ mm
[1]; 4.8 · 10^−9 M
  Germinative energy: 81%
  Germinative capacity: 87%
  Number of lateral roots: 9.5 pcs.
  Sprout height: 30.5 ↑↑ mm
  Taproot length: 38.3 mm
[2]; 4.8 · 10^−5 M
  Germinative energy: 93%
  Germinative capacity: 95%
  Number of lateral roots: 0.5 ↑ pcs.
  Sprout height: 25.3 mm
  Taproot length: 80.1 mm
[2]; 4.8 · 10^−6 M
  Germinative energy: 75%
  Germinative capacity: 80%
  Number of lateral roots: 0.2 pcs.
  Sprout height: 25.7 mm
  Taproot length: 77.7 mm
[2]; 4.8 · 10^−7 M
  Germinative energy: 88%
  Germinative capacity: 91%
  Number of lateral roots: 0.4 pcs.
  Sprout height: 26.3 mm
  Taproot length: 84.6 ↑ mm
[2]; 4.8 · 10^−8 M
  Germinative energy: 74%
  Germinative capacity: 76%
  Number of lateral roots: 0.2 pcs.
  Sprout height: 22.7 mm
  Taproot length: 77.9 mm
[2]; 4.8 · 10^−9 M
  Germinative energy: 82%
  Germinative capacity: 89%
  Number of lateral roots: 0.4 pcs.
  Sprout height: 21.3 ↓ mm
  Taproot length: 77.9 mm
[3]; 4.8 · 10^−5 M
  Germinative energy: 93%
  Germinative capacity: 97%
  Number of lateral roots: 0.1 pcs.
  Sprout height: 34.9 ↑↑ mm
  Taproot length: 41.9 ↑ mm
[3]; 4.8 · 10^−6 M
  Germinative energy: 73%
  Germinative capacity: 80%
  Number of lateral roots: 0.0 pcs.
  Sprout height: 32.5 ↑ mm
  Taproot length: 37.5 ↑ mm
[3]; 4.8 · 10^−7 M
  Germinative energy: 88%
  Germinative capacity: 93%
  Number of lateral roots: 0.5 pcs.
  Sprout height: 33.5 ↑ mm
  Taproot length: 32.2 mm
[3]; 4.8 · 10^−8 M
  Germinative energy: 73%
  Germinative capacity: 97%
  Number of lateral roots: 0.1 pcs.
  Sprout height: 32.4 ↑ mm
  Taproot length: 42.3 ↑ mm
[3]; 4.8 · 10^−9 M
  Germinative energy: 80%
  Germinative capacity: 87%
  Number of lateral roots: 0.7 ↑ pcs.
  Sprout height: 28.5 mm
  Taproot length: 34.6 mm
[4]; 4.8 · 10^−5 M
  Germinative energy: 84%
  Germinative capacity: 88%
  Number of lateral roots: 14.3 pcs.
  Sprout height: 27.8 ↑↑ mm
  Taproot length: 83.7 mm
[4]; 4.8 · 10^−6 M
  Germinative energy: 80%
  Germinative capacity: 85%
  Number of lateral roots: 14.4 pcs.
  Sprout height: 22.2 mm
  Taproot length: 88.3 ↑ mm
[4]; 4.8 · 10^−7 M
  Germinative energy: 84%
  Germinative capacity: 88%
  Number of lateral roots: 15.5 ↑ pcs.
  Sprout height: 22.3 mm
  Taproot length: 89.3 ↑ mm
[4]; 4.8 · 10^−8 M
  Germinative energy: 88%
  Germinative capacity: 95%
  Number of lateral roots: 12.4 pcs.
  Sprout height: 19.3 mm
  Taproot length: 79.8 mm
[4]; 4.8 · 10^−9 M
  Germinative energy: 91%
  Germinative capacity: 93%
  Number of lateral roots: 13.7 pcs.
  Sprout height: 21.6 mm
  Taproot length: 93.8 ↑↑ mm

## Sodium salt of dimethyl ester of oxaloacetic acid [DMOA]
[1]; 5.5 · 10^−5 M
  Germinative energy: 80%
  Germinative capacity: 90%
  Number of lateral roots: 9.7 pcs.
  Sprout height: 23.8 mm
  Taproot length: 35.2 mm
[1]; 5.5 · 10^−6 M
  Germinative energy: 83%
  Germinative capacity: 93%
  Number of lateral roots: 8.5 pcs.
  Sprout height: 23.0 mm
  Taproot length: 46.4 ↑ mm
[1]; 5.5 · 10^−7 M
  Germinative energy: 90 ↑ %
  Germinative capacity: 93%
  Number of lateral roots: 8.2 pcs.
  Sprout height: 26.9 ↑ mm
  Taproot length: 29.8 ↓ mm
[1]; 5.5 · 10^−8 M
  Germinative energy: 93 ↑ %
  Germinative capacity: 91%
  Number of lateral roots: 7.8 pcs.
  Sprout height: 28.8 ↑↑ mm
  Taproot length: 38.1 mm
[1]; 5.5 · 10^−9 M
  Germinative energy: 87%
  Germinative capacity: 93%
  Number of lateral roots: 11.6 ↑ pcs.
  Sprout height: 27.8 mm
  Taproot length: 51.9 ↑ mm
[2]; 5.5 · 10^−5 M
  Germinative energy: 93%
  Germinative capacity: 95%
  Number of lateral roots: 0.2 pcs.
  Sprout height: 25.9 mm
  Taproot length: 83.2 ↑ mm
[2]; 5.5 · 10^−6 M
  Germinative energy: 88%
  Germinative capacity: 90%
  Number of lateral roots: 0.5 ↑ pcs.
  Sprout height: 24.6 mm
  Taproot length: 79.8 mm
[2]; 5.5 · 10^−7 M
  Germinative energy: 88%
  Germinative capacity: 98 ↑ %
  Number of lateral roots: 0.6 ↑ pcs.
  Sprout height: 23.7 mm
  Taproot length: 74.5 mm
[2]; 5.5 · 10^−8 M
  Germinative energy: 98 ↑ %
  Germinative capacity: 98 ↑ %
  Number of lateral roots: 0.1 pcs.
  Sprout height: 23.4 mm
  Taproot length: 83.6 ↑ mm
[2]; 5.5 · 10^−9 M
  Germinative energy: 88%
  Germinative capacity: 90%
  Number of lateral roots: 0.7 ↑ pcs.
  Sprout height: 24.4 mm
  Taproot length: 86.9 ↑↑ mm
[3]; 5.5 · 10^−5 M
  Germinative energy: 93%
  Germinative capacity: 100 ↑ %
  Number of lateral roots: 0.6 ↑ pcs.
  Sprout height: 30.0 mm
  Taproot length: 28.1 mm
[3]; 5.5 · 10^−6 M
  Germinative energy: 88%
  Germinative capacity: 100 ↑ %
  Number of lateral roots: 0.7 ↑ pcs.
  Sprout height: 29.0 mm
  Taproot length: 30.9 mm
[3]; 5.5 · 10^−7 M
  Germinative energy: 88%
  Germinative capacity: 93%
  Number of lateral roots: 0.6 ↑ pcs.
  Sprout height: 28.9 mm
  Taproot length: 31.3 mm
[3]; 5.5 · 10^−8 M
  Germinative energy: 98 ↑ %
  Germinative capacity: 93%
  Number of lateral roots: 0.5 ↑ pcs.
  Sprout height: 28.9 mm
  Taproot length: 31.2 mm
[3]; 5.5 · 10^−9 M
  Germinative energy: 88%
  Germinative capacity: 100 ↑ %
  Number of lateral roots: 0.6 ↑ pcs.
  Sprout height: 30.1 mm
  Taproot length: 35.6 mm
[4]; 5.5 · 10^−5 M
  Germinative energy: 86%
  Germinative capacity: 82%
  Number of lateral roots: 11.9 pcs.
  Sprout height: 19.0 mm
  Taproot length: 74.2 mm
[4]; 5.5 · 10^−6 M
  Germinative energy: 88%
  Germinative capacity: 91%
  Number of lateral roots: 12.3 pcs.
  Sprout height: 15.9 mm
  Taproot length: 75.6 mm
[4]; 5.5 · 10^−7 M
  Germinative energy: 85%
  Germinative capacity: 94%
  Number of lateral roots: 13.7 pcs.
  Sprout height: 17.7 mm
  Taproot length: 78.1 mm
[4]; 5.5 · 10^−8 M
  Germinative energy: 86%
  Germinative capacity: 78%
  Number of lateral roots: 13.5 pcs.
  Sprout height: 17.1 mm
  Taproot length: 74.8 mm
[4]; 5.5 · 10^−9 M
  Germinative energy: 82%
  Germinative capacity: 95%
  Number of lateral roots: 12.9 pcs.
  Sprout height: 18.2 mm
  Taproot length: 82.5 mm
